Assay results published in the supplement of paper PMC10307832.

What was measured:
Assay in all cases: relative viability (nuclei count vs DMSO), 5 days (fraction); higher = more cells survive
HCC-44 = test system: HCC-44
Method in brief: (§1)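 Nuclei were stained with Hoechst during a one-step fixation (final 0.05% Triton X-100, 1% formaldehyde, 1 ug/ml Hoechst) carried out 5 days after dosing, then counted on 4× images. The cells, lung cancer lines in 1536-well plates, had been dosed by pin tool the day after seeding with one drug alone or a fixed anchor-drug dose plus five library-drug doses (not always all listed) in √10 steps. Relative viability is the nuclei count in treated wells divided by that in vehicle wells, and each value is the median of duplicate plates.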

Calu-6 = test system: Calu-6
Method in brief: as §1

NCI-H1755 = test system: NCI-H1755
Method in brief: as §1

NCI-H1395 = test system: NCI-H1395
Method in brief: as §1

EBC-1 = test system: EBC-1
Method in brief: as §1

NCI-H1299 = test system: NCI-H1299
Method in brief: as §1

UMC-11 = test system: UMC-11
Method in brief: as §1

A549 = test system: A549
Method in brief: as §1

IA-LM = test system: IA-LM
Method in brief: as §1

HCC-15 = test system: HCC-15
Method in brief: as §1

NCI-H1703 = test system: NCI-H1703
Method in brief: as §1

EKVX = test system: EKVX
Method in brief: as §1

Compound `O=c1cc(N2CCOCC2)oc2c(-c3cccc4c3sc3ccccc34)cccc12` + CC1(C)CCC(c2ccc(Cl)cc2)=C(CN2CCN(c3ccc(C(=O)NS(=O)(=O)c4ccc(N[C@H](CCN5CCOCC5)CSc5ccccc5)c(S(=O)(=O)C(F)(F)F)c4)cc3)CC2)C1 [Navitoclax] (partner 0.5 µM) has a relative viability (HCC-44; first compound 0.01 µM) of 0.854, a relative viability (HCC-44; first compound 0.03162 µM) of 0.94 and a relative viability (HCC-44; first compound 0.1 µM) of 0.963. For the same compound, the relative viability (HCC-44; first compound 0.3162 µM) was 0.887, the relative viability (HCC-44; first compound 1 µM) was 0.931 and the relative viability (Calu-6; first compound 0.01 µM) was 0.795. For the same compound, the relative viability (Calu-6; first compound 0.03162 µM) was 0.786, the relative viability (Calu-6; first compound 0.1 µM) was 0.967 and the relative viability (Calu-6; first compound 0.3162 µM) was 0.86. For the same compound, the relative viability (Calu-6; first compound 1 µM) was 0.933, the relative viability (NCI-H1755; first compound 0.01 µM) was 0.983 and the relative viability (NCI-H1755; first compound 0.03162 µM) was 0.949. The relative viability (NCI-H1755; first compound 0.1 µM) was 1.02, the relative viability (NCI-H1755; first compound 0.3162 µM) was 0.972 and the relative viability (NCI-H1755; first compound 1 µM) was 0.999. The relative viability (NCI-H1395; first compound 0.01 µM) was 1.08, the relative viability (NCI-H1395; first compound 0.03162 µM) was 1.16 and the relative viability (NCI-H1395; first compound 0.1 µM) was 1.38. It also gave a relative viability (NCI-H1395; first compound 0.3162 µM) of 1.17, a relative viability (NCI-H1395; first compound 1 µM) of 1.23 and a relative viability (EBC-1; first compound 0.01 µM) of 0.469. For the same compound, the relative viability (EBC-1; first compound 0.03162 µM) was 0.377, the relative viability (EBC-1; first compound 0.1 µM) was 0.353 and the relative viability (EBC-1; first compound 0.3162 µM) was 0.408. For the same compound, the relative viability (EBC-1; first compound 1 µM) was 0.406, the relative viability (NCI-H1299; first compound 0.01 µM) was 1.02 and the relative viability (NCI-H1299; first compound 0.03162 µM) was 1.06. For the same compound, the relative viability (NCI-H1299; first compound 0.1 µM) was 1.08, the relative viability (NCI-H1299; first compound 0.3162 µM) was 1 and the relative viability (NCI-H1299; first compound 1 µM) was 1.04. It also gave a relative viability (UMC-11; first compound 0.01 µM) of 0.302, a relative viability (UMC-11; first compound 0.03162 µM) of 0.339 and a relative viability (UMC-11; first compound 0.1 µM) of 0.255. For the same compound, the relative viability (UMC-11; first compound 0.3162 µM) was 0.333, the relative viability (UMC-11; first compound 1 µM) was 0.343 and the relative viability (A549; first compound 0.01 µM) was 1.22. It also gave a relative viability (A549; first compound 0.03162 µM) of 1.17, a relative viability (A549; first compound 0.1 µM) of 1.28 and a relative viability (A549; first compound 0.3162 µM) of 1.23. The relative viability (A549; first compound 1 µM) was 1.2, the relative viability (IA-LM; first compound 0.01 µM) was 0.909 and the relative viability (IA-LM; first compound 0.03162 µM) was 0.667. For the same compound, the relative viability (IA-LM; first compound 0.1 µM) was 0.902, the relative viability (IA-LM; first compound 0.3162 µM) was 0.561 and the relative viability (IA-LM; first compound 1 µM) was 0.876. The relative viability (HCC-15; first compound 0.01 µM) was 0.788, the relative viability (HCC-15; first compound 0.03162 µM) was 0.706 and the relative viability (HCC-15; first compound 0.1 µM) was 0.69. For the same compound, the relative viability (HCC-15; first compound 0.3162 µM) was 0.691, the relative viability (HCC-15; first compound 1 µM) was 0.667 and the relative viability (NCI-H1703; first compound 0.01 µM) was 1.34. The relative viability (NCI-H1703; first compound 0.03162 µM) was 1.28, the relative viability (NCI-H1703; first compound 0.1 µM) was 1.24 and the relative viability (NCI-H1703; first compound 0.3162 µM) was 1.07. The relative viability (NCI-H1703; first compound 1 µM) was 1.01, the relative viability (EKVX; first compound 0.01 µM) was 1.02 and the relative viability (EKVX; first compound 0.03162 µM) was 0.903. For the same compound, the relative viability (EKVX; first compound 0.1 µM) was 0.991, the relative viability (EKVX; first compound 0.3162 µM) was 0.956 and the relative viability (EKVX; first compound 1 µM) was 0.871.

In the case of `O=c1cc(-c2cccc3c2Sc2ccccc2S3)oc(N2CCOCC2)c1` + CC1(C)CCC(c2ccc(Cl)cc2)=C(CN2CCN(c3ccc(C(=O)NS(=O)(=O)c4ccc(N[C@H](CCN5CCOCC5)CSc5ccccc5)c(S(=O)(=O)C(F)(F)F)c4)cc3)CC2)C1 [Navitoclax] (partner 0.5 µM), the relative viability (HCC-44; first compound 0.08 µM) is reported as 0.916, the relative viability (HCC-44; first compound 0.253 µM) is reported as 1.2 and the relative viability (HCC-44; first compound 0.8 µM) is reported as 0.859. The relative viability (HCC-44; first compound 2.53 µM) was 0.96, the relative viability (HCC-44; first compound 8 µM) was 0.905 and the relative viability (Calu-6; first compound 0.08 µM) was 0.818. It also gave a relative viability (Calu-6; first compound 0.253 µM) of 0.765, a relative viability (Calu-6; first compound 0.8 µM) of 0.968 and a relative viability (Calu-6; first compound 2.53 µM) of 0.725. For the same compound, the relative viability (Calu-6; first compound 8 µM) was 0.858, the relative viability (NCI-H1755; first compound 0.08 µM) was 1.05 and the relative viability (NCI-H1755; first compound 0.253 µM) was 1.13. For the same compound, the relative viability (NCI-H1755; first compound 0.8 µM) was 0.992, the relative viability (NCI-H1755; first compound 2.53 µM) was 0.988 and the relative viability (NCI-H1755; first compound 8 µM) was 0.939. It also gave a relative viability (NCI-H1395; first compound 0.08 µM) of 1.14, a relative viability (NCI-H1395; first compound 0.253 µM) of 1.1 and a relative viability (NCI-H1395; first compound 0.8 µM) of 1.12. For the same compound, the relative viability (NCI-H1395; first compound 2.53 µM) was 1.13, the relative viability (NCI-H1395; first compound 8 µM) was 1.03 and the relative viability (EBC-1; first compound 0.08 µM) was 0.401. The relative viability (EBC-1; first compound 0.253 µM) was 0.376, the relative viability (EBC-1; first compound 0.8 µM) was 0.401 and the relative viability (EBC-1; first compound 2.53 µM) was 0.362. It also gave a relative viability (EBC-1; first compound 8 µM) of 0.335, a relative viability (NCI-H1299; first compound 0.08 µM) of 1.08 and a relative viability (NCI-H1299; first compound 0.253 µM) of 1.08. The relative viability (NCI-H1299; first compound 0.8 µM) was 1.04, the relative viability (NCI-H1299; first compound 2.53 µM) was 1.04 and the relative viability (NCI-H1299; first compound 8 µM) was 1.04. For the same compound, the relative viability (UMC-11; first compound 0.08 µM) was 0.326, the relative viability (UMC-11; first compound 0.253 µM) was 0.319 and the relative viability (UMC-11; first compound 0.8 µM) was 0.32. For the same compound, the relative viability (UMC-11; first compound 2.53 µM) was 0.304, the relative viability (UMC-11; first compound 8 µM) was 0.353 and the relative viability (A549; first compound 0.08 µM) was 1.14. It also gave a relative viability (A549; first compound 0.253 µM) of 1.51, a relative viability (A549; first compound 0.8 µM) of 1.47 and a relative viability (A549; first compound 2.53 µM) of 1.13. It also gave a relative viability (A549; first compound 8 µM) of 1.37, a relative viability (IA-LM; first compound 0.08 µM) of 0.847 and a relative viability (IA-LM; first compound 0.253 µM) of 1.06. It also gave a relative viability (IA-LM; first compound 0.8 µM) of 0.815, a relative viability (IA-LM; first compound 2.53 µM) of 0.856 and a relative viability (IA-LM; first compound 8 µM) of 0.963. For the same compound, the relative viability (HCC-15; first compound 0.08 µM) was 0.68, the relative viability (HCC-15; first compound 0.253 µM) was 0.866 and the relative viability (HCC-15; first compound 0.8 µM) was 0.615. It also gave a relative viability (HCC-15; first compound 2.53 µM) of 0.66, a relative viability (HCC-15; first compound 8 µM) of 0.705 and a relative viability (NCI-H1703; first compound 0.253 µM) of 1.22. It also gave a relative viability (NCI-H1703; first compound 0.8 µM) of 1.35, a relative viability (NCI-H1703; first compound 2.53 µM) of 1.05 and a relative viability (NCI-H1703; first compound 8 µM) of 1.05. It also gave a relative viability (EKVX; first compound 0.08 µM) of 0.975, a relative viability (EKVX; first compound 0.253 µM) of 0.998 and a relative viability (EKVX; first compound 0.8 µM) of 0.888. For the same compound, the relative viability (EKVX; first compound 2.53 µM) was 0.954 and the relative viability (EKVX; first compound 8 µM) was 0.965.
